Test results taken from ChEMBL document CHEMBL1201862, “PubChem BioAssay data set” (2004).
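Each compound was tested at five concentrations against cells in 96-well plates for 48 hours. GI50 marks 50% less growth.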 Activity calls are given as the source filed them. Cut-off read from the data, not from the text of the source: active = GI50 up to about 1.1 µM and inactive = higher.

Columns and labels:
Experiment in all cases: inhibition of tumour cell growth, NCI panel, 48 h
[1] = system: SK-OV-3
[2] = system: UO-31
[3] = system: UACC-62
[4] = system: Hs-578T
[5] = system: RPMI-8226
[6] = system: HT-29
[7] = system: COLO 205
[8] = system: SR
[9] = system: HCT-116
[10] = system: NCI-H522
[11] = system: SN12C
[12] = system: MDA-N
[13] = system: CAKI-1
[14] = system: NCI-H23
[15] = system: HOP-92
[16] = system: OVCAR-4
[17] = system: LOX IMVI
[18] = system: SK-MEL-2
[19] = system: KM12

Measured: GI50

COc1cccc2[nH]c(-c3ccccn3)nc12
inactive: [1] > 100 µM | [2] 44.8 µM | [3] > 100 µM | [4] 68.9 µM | [5] 32.4 µM | [6] > 100 µM | [7] > 100 µM | [8] > 100 µM | [9] > 100 µM | [10] 48.9 µM | [11] > 100 µM | [12] > 100 µM | [13] 77.6 µM | [14] > 100 µM | [15] > 100 µM | [16] > 100 µM | [17] > 100 µM | [18] > 100 µM | [19] > 100 µM

COc1cc(-c2[o+]c3cc(O)cc(O)c3cc2O)cc(O)c1O
inactive: [1] > 100 µM | [2] > 100 µM | [3] > 100 µM | [4] > 100 µM | [5] > 100 µM | [6] > 100 µM | [7] > 100 µM | [8] 96.6 µM | [9] > 100 µM | [10] 66.5 µM | [11] > 100 µM | [12] 34.8 µM | [13] > 100 µM | [14] > 100 µM | [15] > 100 µM | [16] 60 µM | [17] 55.8 µM | [18] > 100 µM | [19] > 100 µM

c1ccc2c3c([nH]c2c1)C1CCCN1CC3 (stereo unspecified)
inactive: [1] > 10 µM | [2] > 10 µM | [4] > 10 µM | [5] > 10 µM | [6] > 10 µM | [7] > 10 µM | [8] > 10 µM | [10] > 10 µM | [11] > 10 µM | [12] > 10 µM | [13] > 10 µM | [14] > 10 µM | [15] > 10 µM | [16] > 10 µM | [17] > 10 µM | [18] > 10 µM | [19] > 10 µM

CC(C)OC(=O)C1=C2c3ncccc3C(=O)N2[C@@H](Cl)[C@@H](Cl)[C@@H]1Cl
inactive: [2] > 100 µM | [3] > 100 µM | [4] 81.5 µM | [5] 29.8 µM | [6] > 100 µM | [7] > 100 µM | [8] 49.5 µM | [9] > 100 µM | [10] 35.6 µM | [11] 21.2 µM | [12] 74.1 µM | [13] > 100 µM | [14] > 100 µM | [15] > 100 µM | [16] > 100 µM | [17] > 100 µM | [18] > 100 µM | [19] > 100 µM

O=P(c1ccccc1)(c1ccccc1)N1O[C@@H](c2ccccc2)C=C[C@H]1c1ccccc1
inactive: [1] 15.1 µM | [2] 5.13 µM | [3] 6.17 µM | [4] 14.2 µM | [5] 5.79 µM | [6] 9.75 µM | [7] 12.3 µM | [8] 4.46 µM | [9] 4.11 µM | [10] 9.33 µM | [11] 4.36 µM | [12] 3.31 µM | [13] 5.66 µM | [14] 10.8 µM | [15] 11.6 µM | [16] 2.57 µM | [17] 7.19 µM | [18] 12 µM | [19] 14.5 µM

COc1ccccc1C1c2cc3c(cc2OC(N2CCCC2)C1C)OCO3 (stereo unspecified)
inactive: [2] 10.4 µM | [3] 16.2 µM | [4] 7.48 µM | [5] 14.8 µM | [6] 21.4 µM | [7] 18 µM | [8] 6.21 µM | [9] 14.8 µM | [10] 9.95 µM | [11] 17.1 µM | [12] 11.1 µM | [13] 9.84 µM | [14] 18.3 µM | [15] 3.08 µM | [16] 21.6 µM | [17] 16.9 µM | [18] 14.8 µM | [19] 19.3 µM

CCCCC(=O)OC[n+]1ccc(-c2c(COC(=O)NC(C)C)c(COC(=O)NC(C)C)c3n2CCC3)cc1
inactive: [1] > 100 µM | [2] > 100 µM | [3] 30.9 µM | [4] > 100 µM | [5] > 68.7 µM | [6] > 76 µM | [7] > 80.9 µM | [8] 10 µM | [9] > 94.8 µM | [10] 30.5 µM | [11] 40.3 µM | [12] > 100 µM | [13] 24.9 µM | [14] 53.6 µM | [15] > 84.1 µM | [16] > 100 µM | [17] 47.9 µM | [18] > 100 µM | [19] > 100 µM

COC(OC)(c1ccccc1)C(I)I
inactive: [1] 12.1 µM | [2] 16.3 µM | [3] 13.4 µM | [4] 20.1 µM | [5] 2.09 µM | [6] 15 µM | [7] 8.69 µM | [8] 2.04 µM | [9] 4.91 µM | [10] 2.5 µM | [11] 20.1 µM | [12] 7.96 µM | [13] 11.8 µM | [14] 19.2 µM | [15] 13.4 µM | [16] 14.2 µM | [17] 13.4 µM | [18] 13.8 µM | [19] 16.3 µM

CC1(C)OC(=O)N(c2ccccc2)C12C=Cc1cc([N+](=O)[O-])ccc1O2 (stereo unspecified)
inactive: [1] 28.9 µM | [2] 25.1 µM | [3] 31.3 µM | [4] 19.5 µM | [5] 48.5 µM | [6] 35.5 µM | [7] 45.3 µM | [8] 19.6 µM | [9] 33.3 µM | [10] 25.8 µM | [11] 56.5 µM | [12] 22.6 µM | [13] 50.1 µM | [14] 36.2 µM | [15] 20.2 µM | [16] 61.8 µM | [17] 48.2 µM | [18] 33.4 µM | [19] 56.6 µM

c1ccc(/N=C(/Nc2ccccc2)N2CCCC2)cc1
inactive: [1] > 100 µM | [2] > 100 µM | [3] > 100 µM | [4] > 100 µM | [5] > 100 µM | [6] > 100 µM | [7] > 100 µM | [8] > 100 µM | [9] > 100 µM | [10] > 100 µM | [11] > 100 µM | [12] > 100 µM | [13] > 100 µM | [14] > 100 µM | [15] > 100 µM | [16] > 100 µM | [17] > 100 µM | [18] > 100 µM | [19] > 100 µM

COc1ccc2cc(NC(=O)Nn3cnnc3)ccc2c1
inactive: [1] > 100 µM | [2] > 100 µM | [3] > 100 µM | [4] > 100 µM | [5] > 100 µM | [6] > 100 µM | [7] > 100 µM | [8] > 100 µM | [9] > 100 µM | [10] > 100 µM | [12] > 100 µM | [13] > 100 µM | [14] > 100 µM | [15] > 100 µM | [16] > 100 µM | [17] > 100 µM | [18] > 100 µM | [19] 92.5 µM

CN(NC(=O)c1cccs1)C1=NCCN1
inactive: [1] > 100 µM | [2] > 100 µM | [3] > 100 µM | [4] > 100 µM | [5] > 100 µM | [6] > 100 µM | [7] > 100 µM | [8] > 100 µM | [9] > 100 µM | [10] > 100 µM | [12] > 100 µM | [14] > 100 µM | [15] > 100 µM | [16] > 100 µM | [17] > 100 µM | [18] > 100 µM | [19] > 100 µM

Fc1ccc(/N=N/N2CCCC2)cc1
inactive: [1] > 100 µM | [2] 27 µM | [3] 7.08 µM | [4] > 100 µM | [5] 22.3 µM | [6] > 100 µM | [7] > 100 µM | [8] 28.4 µM | [9] 85.7 µM | [10] > 100 µM | [11] 51.1 µM | [12] 32.4 µM | [13] > 100 µM | [14] > 100 µM | [15] > 100 µM | [16] > 100 µM | [17] 4.94 µM | [18] > 100 µM | [19] 92.3 µM

CCOP1(=O)OCC2OC(n3cnc4c(N)ncnc43)C(O)C2O1.c1ccccc1 (stereo unspecified)
inactive: [1] > 100 µM | [2] > 100 µM | [3] > 100 µM | [4] > 100 µM | [5] > 100 µM | [6] > 100 µM | [7] > 100 µM | [8] > 100 µM | [9] > 100 µM | [10] > 100 µM | [11] > 100 µM | [12] > 100 µM | [13] > 100 µM | [15] > 100 µM | [16] > 100 µM | [17] > 100 µM | [18] > 100 µM | [19] > 100 µM

N=C1CCCC1C(=S)SCCC(N)=O (stereo unspecified)
inactive: [1] > 100 µM | [2] > 100 µM | [3] > 100 µM | [4] > 100 µM | [5] > 100 µM | [6] > 100 µM | [7] > 100 µM | [8] 19.3 µM | [9] > 100 µM | [10] > 100 µM | [11] > 100 µM | [12] > 100 µM | [13] > 100 µM | [14] > 100 µM | [15] > 100 µM | [16] > 100 µM | [18] > 100 µM | [19] > 100 µM
